#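 1) Cells in 96-well plates. 2) Compound, 48 h, 5 concentrations. 3) Linear interpolation between surrounding doses. 4) Unreached endpoint = highest concentration. At the GI50, growth is halved. The concentration for full growth arrest is given as TGI.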
# Columns and labels:
# Experiment in all cases: NCI tumour cell line growth inhibition, 48 h
# [1] = test system: A549 NSCLC
# [2] = test system: IGROV1 ovarian
# [3] = test system: SW-620 colon
# [4] = test system: NCI-H23 lung
# [5] = test system: MDA-MB-231 breast
# [6] = test system: HS 578T breast
# [7] = test system: OVCAR-4 ovarian
# [8] = test system: HT29 colon
# [9] = test system: A498 renal
# [10] = test system: SF-295 CNS
# [11] = test system: MDA-MB-435
# [12] = test system: MALME-3M melanoma
# [13] = test system: UACC-62 melanoma
# [14] = test system: OVCAR-8 ovarian
# [15] = test system: DMS 273 small cell lung
# [16] = test system: CCRF-CEM leukemia
# [17] = test system: HL-60(TB) leukemia
# [18] = test system: SK-OV-3 ovarian
# [19] = test system: XF 498 CNS
# [20] = test system: HOP-18 NSCLC
# [21] = test system: KM20L2 colon
# [22] = test system: RXF-631 renal
# [23] = test system: SF-268 CNS
# [24] = test system: 786-0 renal
# [25] = test system: UACC-257 melanoma
# [26] = test system: MCF7 breast
# [27] = test system: MDA-N
# [28] = test system: SNB-78 CNS
# [29] = test system: MOLT-4 leukemia
# [30] = test system: UO-31 renal
# [31] = test system: RPMI-8226 leukemia
# [32] = test system: RXF 393 renal
# [33] = test system: HCT-15 colon
# [34] = test system: NCI-H522 lung
# [35] = test system: LXFL 529 NSCLC
# [36] = test system: HCT-116 colon
# [37] = test system: EKVX NSCLC
# [38] = test system: DMS 114 small cell lung
# [39] = test system: M14 melanoma
# [40] = test system: HCC-2998 colon
# [41] = test system: HOP-62 NSCLC
# [42] = test system: BT-549 breast
# [43] = test system: LOX IMVI melanoma
# [44] = test system: CAKI-1 renal
# [45] = test system: NCI-H460 lung
# [46] = test system: TK-10 renal
# [47] = test system: SK-MEL-5 melanoma
# [48] = test system: SF-539 CNS
# [49] = test system: T-47D breast
# [50] = test system: ACHN renal
# [51] = test system: HOP-92 NSCLC
# [52] = test system: OVCAR-5 ovarian
# [53] = test system: K-562 leukemia
# [54] = test system: SR leukemia
# [55] = test system: U251 CNS
# [56] = test system: SK-MEL-2 melanoma
# [57] = test system: PC-3 prostate
# [58] = test system: SN12C renal
# [59] = test system: COLO 205 colon
# [60] = test system: NCI/ADR-RES ovarian
# [61] = test system: OVCAR-3 ovarian
# [62] = test system: NCI-H226 lung
# [63] = test system: SNB-19 CNS
# [64] = test system: DU-145 prostate
# [65] = test system: SK-MEL-28 melanoma
# [66] = test system: SNB-75 CNS
# [67] = test system: KM12 colon
# [68] = test system: DLD-1 colon
# [69] = test system: M19-MEL melanoma
compound,measurement,setting,value
CCC1(O)C(=O)OCc2c1cc1n(c2=O)Cc2cc3c(N)cccc3nc2-1 (stereo not given),TGI,[1],10.8 µM
same,TGI,[2],6.23 µM
same,GI50,[3],0.0531 µM
same,TGI,[3],11.7 µM
same,TGI,[4],0.0806 µM
same,TGI,[5],14.2 µM
same,TGI,[6],22.8 µM
same,TGI,[7],11.6 µM
same,TGI,[8],22.8 µM
same,TGI,[9],1.39 µM
same,TGI,[10],2.01 µM
same,TGI,[11],2.88 µM
same,TGI,[12],5.67 µM
same,TGI,[13],0.0345 µM
same,TGI,[14],7.21 µM
same,TGI,[15],0.209 µM
same,TGI,[16],0.0858 µM
same,TGI,[17],0.111 µM
same,TGI,[18],0.804 µM
same,TGI,[19],1.85 µM
same,TGI,[20],0.903 µM
same,TGI,[21],20.5 µM
same,TGI,[22],1.62 µM
same,TGI,[23],0.579 µM
same,TGI,[24],0.0893 µM
same,TGI,[25],2.62 µM
same,TGI,[26],> 39.7 µM
same,TGI,[27],2.57 µM
same,TGI,[28],> 51.7 µM
same,TGI,[29],0.014 µM
same,TGI,[30],0.126 µM
same,GI50,[31],0.0279 µM
same,TGI,[31],0.879 µM
same,TGI,[32],0.348 µM
same,TGI,[33],25.2 µM
same,GI50,[34],0.0231 µM
same,TGI,[34],0.763 µM
same,GI50,[35],0.307 µM
same,TGI,[35],4.71 µM
same,TGI,[36],0.735 µM
same,TGI,[37],30.3 µM
same,TGI,[38],0.504 µM
same,GI50,[39],< 0.01 µM
same,TGI,[39],0.0872 µM
same,TGI,[40],2.58 µM
same,TGI,[41],0.0748 µM
same,TGI,[42],4.95 µM
same,TGI,[43],0.23 µM
same,TGI,[44],0.272 µM
same,TGI,[45],1.13 µM
same,TGI,[46],35.8 µM
same,TGI,[47],0.192 µM
same,TGI,[48],0.0409 µM
same,GI50,[49],0.0191 µM
same,TGI,[49],0.654 µM
same,TGI,[50],0.157 µM
same,TGI,[51],0.931 µM
same,GI50,[52],0.106 µM
same,TGI,[52],2.67 µM
same,TGI,[53],> 48.2 µM
same,TGI,[54],< 0.0114 µM
same,TGI,[55],1.21 µM
same,TGI,[56],3.43 µM
same,TGI,[57],> 100 µM
same,TGI,[58],0.595 µM
same,TGI,[59],6.41 µM
same,TGI,[60],0.228 µM
same,TGI,[61],3.02 µM
same,TGI,[62],0.0597 µM
same,TGI,[63],26.1 µM
same,TGI,[64],0.25 µM
same,TGI,[65],9.19 µM
same,TGI,[66],0.251 µM
same,TGI,[67],20 µM
same,TGI,[68],> 56.4 µM
same,TGI,[69],1.29 µM
CC(C)=CC(=O)N1CCN(C(=O)C=C(C)C)CC1,TGI,[1],> 100 µM
same,TGI,[2],> 100 µM
same,TGI,[3],> 100 µM
same,TGI,[4],> 100 µM
same,TGI,[7],> 100 µM
same,TGI,[8],> 100 µM
same,TGI,[9],> 100 µM
same,TGI,[10],> 100 µM
same,TGI,[13],> 100 µM
same,TGI,[14],> 100 µM
same,TGI,[15],> 100 µM
same,TGI,[16],> 100 µM
same,TGI,[17],> 100 µM
same,TGI,[18],> 100 µM
same,TGI,[19],> 100 µM
same,TGI,[20],> 100 µM
same,TGI,[21],> 100 µM
same,TGI,[22],> 100 µM
same,TGI,[23],> 100 µM
same,TGI,[24],> 100 µM
same,TGI,[25],> 100 µM
same,TGI,[28],> 100 µM
same,TGI,[29],> 100 µM
same,TGI,[30],> 100 µM
same,TGI,[31],> 100 µM
same,TGI,[33],> 100 µM
same,TGI,[34],> 100 µM
same,TGI,[35],> 100 µM
same,TGI,[36],> 100 µM
same,TGI,[37],> 100 µM
same,TGI,[38],> 100 µM
same,TGI,[39],> 100 µM
same,TGI,[40],> 100 µM
same,TGI,[41],> 100 µM
same,TGI,[43],> 100 µM
same,TGI,[44],> 100 µM
same,TGI,[45],> 100 µM
same,TGI,[46],> 100 µM
same,TGI,[47],> 100 µM
same,TGI,[48],> 100 µM
same,TGI,[50],> 100 µM
same,TGI,[51],> 100 µM
same,TGI,[52],> 100 µM
same,TGI,[53],> 100 µM
same,TGI,[54],> 100 µM
same,TGI,[55],> 100 µM
same,TGI,[58],> 100 µM
same,TGI,[61],> 100 µM
same,TGI,[63],> 100 µM
same,TGI,[65],> 100 µM
same,TGI,[66],> 100 µM
same,TGI,[67],> 100 µM
same,TGI,[68],> 100 µM
same,TGI,[69],> 100 µM

# — PubChem BioAssay (NCI)
